Source: publication PMC9454848, “BMS-986158, a Small Molecule Inhibitor of the Bromodomain and Extraterminal Domain Proteins, in Patients with Selected Advanced Solid Tumors: Results from a Phase 1/2a Trial” (Cancers, 2022)
Entries after “also recorded” stand apart in the source; their conditions may differ. Read-outs that look alike come from different tables or passages of the source.

Legend:
[1] = Plasma pharmacokinetics after single dose (C1D1), LC-MS/MS; type: in vivo, human; conditions: human, plasma, oral, read-out: Mean T1/2, range across doses
Method: (§1) At C1D1 in every dosing schedule cohort, a single dose was administered followed by 168 h (i.e., 7 days) of intensive PK sampling. Following cycle 1, the multiple-dose treatment schedules (described above) began in cycle 2. PK parameters were derived following single dose combined across all schedules and multiple doses at cycle 2 for each schedule. […] PK assessments were evaluated for BMS-986158 and its metabolite using plasma samples at regular intervals. Both the parent and metabolite samples were simultaneously analyzed using a validated liquid chromatography and tandem mass spectrometry assay.
(§2) All treated patients who received ≥1 dose of BMS-986158 were evaluated in the safety population. […] All treated patients with available and sufficient serum or plasma samples for the corresponding analytes were included in the PK analyses. […] ECG parameters were evaluated in a categorical analysis, and linear mixed-effects regression modeling was used to describe the quantitative relationship between ΔQTcF and time-matched serum concentrations of BMS-986158 or its metabolite at a single dose.

[2] = Plasma pharmacokinetics after multiple doses (cycle 2, steady state), LC-MS/MS; type: in vivo, human; conditions: for AUC(0-t) / half-life / Tmax / Cmax: human, plasma, oral
Method: as §1, §2

For `Cc1nnn(C)c1-c1cnc2c3ccc(C(C)(C)O)cc3n([C@H](c3ccccc3)C3CCOCC3)c2c1` [BMS-986158], the half-life [1] was 34 to 54 h, the “CL/F at steady state, geometric mean, range across doses” value (shortened to “CL/F at steady state, geometric mean”) ([2]; Schedule A) was 4.60 to 5.41 mL/min and the “CL/F at steady state, geometric mean” value ([2]; Schedule B) was 3.76 to 9.72 mL/min. The “CL/F at steady state, geometric mean” value ([2]; Schedule C) was 3.89 to 6.65 mL/min, the AUC(0-t) ([2]; 0.75 mg, multiple dose, steady state, Schedule A (5 days on, 2 days off), 0.75 mg, n = 3, read-out: AUC(0–24), GM (%CV)) was 2720 ng·h/mL and the half-life ([2]; 0.75 mg, multiple dose, steady state, Schedule A (5 days on, 2 days off), 0.75 mg, n = 3, read-out: Effective T1/2, mean (SD) (converted)) was 36 h. For the same compound, the AUC(0-t) ([2]; 0.75 mg, multiple dose, steady state, Schedule A (5 days on, 2 days off), 0.75 mg, n = 4, read-out: AUC(0–T), GM (%CV)) was 3450 ng·h/mL, the Tmax ([2]; 0.75 mg, multiple dose, steady state, Schedule A (5 days on, 2 days off), 0.75 mg, n = 4, read-out: Tmax, median (range)) was 3.14 h and the Cmax ([2]; 0.75 mg, multiple dose, steady state, Schedule A (5 days on, 2 days off), n = 4) was 136 ng/mL. For the same compound, the AUC(0-t) ([2]; 1.25 mg, multiple dose, steady state, Schedule A (5 days on, 2 days off), 1.25 mg, n = 1, read-out: AUC(0–24), GM (%CV)) was 3850 ng·h/mL, the AUC(0-t) ([2]; 1.25 mg, multiple dose, steady state, Schedule A (5 days on, 2 days off), 1.25 mg, n = 4, read-out: AUC(0–T), GM (%CV)) was 4960 ng·h/mL and the Tmax ([2]; 1.25 mg, multiple dose, steady state, Schedule A (5 days on, 2 days off), 1.25 mg, n = 4, read-out: Tmax, median (range)) was 1.5 h. It also gave a Cmax ([2]; 1.25 mg, multiple dose, steady state, Schedule A (5 days on, 2 days off), n = 4) of 284 ng/mL, an AUC(0-t) ([2]; 2 mg, multiple dose, steady state, Schedule A (5 days on, 2 days off), 2.0 mg, n = 7, read-out: AUC(0–T), GM (%CV)) of 7610 ng·h/mL and a Tmax ([2]; 2 mg, multiple dose, steady state, Schedule A (5 days on, 2 days off), 2.0 mg, n = 7, read-out: Tmax, median (range)) of 2 h. It also gave a Cmax ([2]; 2 mg, multiple dose, steady state, Schedule A (5 days on, 2 days off), n = 7) of 442 ng/mL, an AUC(0-t) ([2]; 2 mg, multiple dose, steady state, Schedule B (14 days on, 7 days off), 2.0 mg, n = 1, read-out: AUC(0–24), GM (%CV)) of 3430 ng·h/mL and an AUC(0-t) ([2]; 2 mg, multiple dose, steady state, Schedule B (14 days on, 7 days off), 2.0 mg, n = 1, read-out: AUC(0–T), GM (%CV)) of 6320 ng·h/mL. It also gave a half-life ([2]; 2 mg, multiple dose, steady state, Schedule B (14 days on, 7 days off), 2.0 mg, n = 1, read-out: Effective T1/2, mean (SD) (converted)) of 14.4 h, a Tmax ([2]; 2 mg, multiple dose, steady state, Schedule B (14 days on, 7 days off), 2.0 mg, n = 1, read-out: Tmax, median (range)) of 1 h and a Cmax ([2]; 2 mg, multiple dose, steady state, Schedule B (14 days on, 7 days off), n = 1) of 279 ng/mL. It also gave an AUC(0-t) ([2]; 2 mg, multiple dose, steady state, Schedule C (7 days on, 14 days off), 2.0 mg, n = 5, read-out: AUC(0–24), GM (%CV)) of 8560 ng·h/mL, an AUC(0-t) ([2]; 2 mg, multiple dose, steady state, Schedule C (7 days on, 14 days off), 2.0 mg, n = 5, read-out: AUC(0–T), GM (%CV)) of 19900 ng·h/mL and a half-life ([2]; 2 mg, multiple dose, steady state, Schedule C (7 days on, 14 days off), 2.0 mg, n = 5, read-out: Effective T1/2, mean (SD) (converted)) of 31.6 h. It also gave a Tmax ([2]; 2 mg, multiple dose, steady state, Schedule C (7 days on, 14 days off), 2.0 mg, n = 5, read-out: Tmax, median (range)) of 1 h, a Cmax ([2]; 2 mg, multiple dose, steady state, Schedule C (7 days on, 14 days off), n = 5) of 520 ng/mL and an AUC(0-t) ([2]; 3 mg, multiple dose, steady state, Schedule A (5 days on, 2 days off), 3.0 mg, n = 7, read-out: AUC(0–24), GM (%CV)) of 9820 ng·h/mL. The half-life ([2]; 3 mg, multiple dose, steady state, Schedule A (5 days on, 2 days off), 3.0 mg, n = 7, read-out: Effective T1/2, mean (SD) (converted)) was 25.7 h, the AUC(0-t) ([2]; 3 mg, multiple dose, steady state, Schedule A (5 days on, 2 days off), 3.0 mg, n = 8, read-out: AUC(0–T), GM (%CV)) was 13400 ng·h/mL and the Tmax ([2]; 3 mg, multiple dose, steady state, Schedule A (5 days on, 2 days off), 3.0 mg, n = 8, read-out: Tmax, median (range)) was 2.01 h. The Cmax ([2]; 3 mg, multiple dose, steady state, Schedule A (5 days on, 2 days off), n = 8) was 624 ng/mL, the AUC(0-t) ([2]; 3 mg, multiple dose, steady state, Schedule B (14 days on, 7 days off), 3.0 mg, n = 1, read-out: AUC(0–24), GM (%CV)) was 13300 ng·h/mL and the AUC(0-t) ([2]; 3 mg, multiple dose, steady state, Schedule B (14 days on, 7 days off), 3.0 mg, n = 1, read-out: AUC(0–T), GM (%CV)) was 34000 ng·h/mL. The half-life ([2]; 3 mg, multiple dose, steady state, Schedule B (14 days on, 7 days off), 3.0 mg, n = 1, read-out: Effective T1/2, mean (SD) (converted)) was 37.3 h, the Tmax ([2]; 3 mg, multiple dose, steady state, Schedule B (14 days on, 7 days off), 3.0 mg, n = 1, read-out: Tmax, median (range)) was 1 h and the Cmax ([2]; 3 mg, multiple dose, steady state, Schedule B (14 days on, 7 days off), n = 1) was 855 ng/mL. It also gave a half-life ([2]; 3 mg, multiple dose, steady state, Schedule C (7 days on, 14 days off), 3.0 mg, n = 7, read-out: Effective T1/2, mean (SD) (converted)) of 27.3 h, an AUC(0-t) ([2]; 3 mg, multiple dose, steady state, Schedule C (7 days on, 14 days off), 3.0 mg, n = 8, read-out: AUC(0–24), GM (%CV)) of 8640 ng·h/mL and an AUC(0-t) ([2]; 3 mg, multiple dose, steady state, Schedule C (7 days on, 14 days off), 3.0 mg, n = 8, read-out: AUC(0–T), GM (%CV)) of 18300 ng·h/mL. It also gave a Tmax ([2]; 3 mg, multiple dose, steady state, Schedule C (7 days on, 14 days off), 3.0 mg, n = 8, read-out: Tmax, median (range)) of 1.66 h, a Cmax ([2]; 3 mg, multiple dose, steady state, Schedule C (7 days on, 14 days off), n = 8) of 588 ng/mL and an AUC(0-t) ([2]; 4.5 mg, multiple dose, steady state, Schedule A (5 days on, 2 days off), 4.5 mg, n = 8, read-out: AUC(0–24), GM (%CV)) of 14600 ng·h/mL. For the same compound, the AUC(0-t) ([2]; 4.5 mg, multiple dose, steady state, Schedule A (5 days on, 2 days off), 4.5 mg, n = 8, read-out: AUC(0–T), GM (%CV)) was 29500 ng·h/mL, the half-life ([2]; 4.5 mg, multiple dose, steady state, Schedule A (5 days on, 2 days off), 4.5 mg, n = 8, read-out: Effective T1/2, mean (SD) (converted)) was 27.3 h and the Tmax ([2]; 4.5 mg, multiple dose, steady state, Schedule A (5 days on, 2 days off), 4.5 mg, n = 8, read-out: Tmax, median (range)) was 2 h. The Cmax ([2]; 4.5 mg, multiple dose, steady state, Schedule A (5 days on, 2 days off), n = 8) was 898 ng/mL, the half-life ([2]; 4.5 mg, multiple dose, steady state, Schedule C (7 days on, 14 days off), 4.5 mg, n = 5, read-out: Effective T1/2, mean (SD) (converted)) was 27.6 h and the AUC(0-t) ([2]; 4.5 mg, multiple dose, steady state, Schedule C (7 days on, 14 days off), 4.5 mg, n = 7, read-out: AUC(0–24), GM (%CV)) was 11300 ng·h/mL. It also gave an AUC(0-t) ([2]; 4.5 mg, multiple dose, steady state, Schedule C (7 days on, 14 days off), 4.5 mg, n = 7, read-out: AUC(0–T), GM (%CV)) of 20000 ng·h/mL, a Tmax ([2]; 4.5 mg, multiple dose, steady state, Schedule C (7 days on, 14 days off), 4.5 mg, n = 7, read-out: Tmax, median (range)) of 2 h and a Cmax ([2]; 4.5 mg, multiple dose, steady state, Schedule C (7 days on, 14 days off), n = 7) of 901 ng/mL. It also gave a half-life ([2]; multiple dose, Schedule A, read-out: Mean effective T1/2, range) of 25.7 to 36 h, a half-life ([2]; multiple dose, Schedule B, read-out: Mean effective T1/2, range) of 14.4 to 37.3 h and a half-life ([2]; multiple dose, Schedule C, read-out: Mean effective T1/2, range) of 27.3 to 31.6 h. The AUC(0-t) ([2]; multiple doses, Schedule A, 0.75–4.5-mg doses, read-out: Geometric mean AUC(0–T), range) was 3450 to 29500 ng·h/mL, the AUC(0-t) ([2]; multiple doses, Schedule A, read-out: AUC(0–24), range) was 2720 to 14600 ng·h/mL and the AUC(0-t) ([2]; multiple doses, Schedule B, 2.0–3.0-mg dose groups, read-out: Geometric mean AUC(0–T), range) was 6320 to 34000 ng·h/mL. The AUC(0-t) ([2]; multiple doses, Schedule B, read-out: AUC(0–24), range) was 3430 to 13300 ng·h/mL, the AUC(0-t) ([2]; multiple doses, Schedule C, 2.0–4.5 mg, read-out: Geometric mean AUC(0–T), range) was 18300 to 20000 ng·h/mL and the AUC(0-t) ([2]; multiple doses, Schedule C, read-out: AUC(0–24), range) was 8560 to 11300 ng·h/mL. For the same compound, the Tmax ([2]; multiple-dose administration, read-out: Tmax, range across all doses and schedules) was 1 to 3.14 h, the “Dose proportionality of PK profile” value ([2]; multiple-dose administration, Schedule A) was “approximately dose proportional; also recorded: dose-proportional PK profile” and the “Dose proportionality of PK profile” value ([2]; multiple-dose administration, Schedule C) was “less than dose proportional”.
